Measured values reported in patent US8877742B2, “Compounds” (GlaxoSmithKline Intellectual Property Limited, priority 2011, dated 2014).

target: T1, NOX2 in differentiated HL60 cells (Homo sapiens, UniProt P04839); assay: HL60 cell-based assays: superoxide production by NOX2 (Oxyburst Assay 1 or L012 Assay 2); conditions: PMA-stimulated differentiated HL60 cells; in at least one of the HL60 assays (Oxyburst fluorescence or L012 luminescence)
T1 construct: Differentiation of HL-60 cells to granulocytes increases NOX2 expression; endogenous in cells; host or cells: HL60 cells differentiated into neutrophil-like cells with 1.3% DMSO
T1 sequence (P04839 2-570 limits assumed): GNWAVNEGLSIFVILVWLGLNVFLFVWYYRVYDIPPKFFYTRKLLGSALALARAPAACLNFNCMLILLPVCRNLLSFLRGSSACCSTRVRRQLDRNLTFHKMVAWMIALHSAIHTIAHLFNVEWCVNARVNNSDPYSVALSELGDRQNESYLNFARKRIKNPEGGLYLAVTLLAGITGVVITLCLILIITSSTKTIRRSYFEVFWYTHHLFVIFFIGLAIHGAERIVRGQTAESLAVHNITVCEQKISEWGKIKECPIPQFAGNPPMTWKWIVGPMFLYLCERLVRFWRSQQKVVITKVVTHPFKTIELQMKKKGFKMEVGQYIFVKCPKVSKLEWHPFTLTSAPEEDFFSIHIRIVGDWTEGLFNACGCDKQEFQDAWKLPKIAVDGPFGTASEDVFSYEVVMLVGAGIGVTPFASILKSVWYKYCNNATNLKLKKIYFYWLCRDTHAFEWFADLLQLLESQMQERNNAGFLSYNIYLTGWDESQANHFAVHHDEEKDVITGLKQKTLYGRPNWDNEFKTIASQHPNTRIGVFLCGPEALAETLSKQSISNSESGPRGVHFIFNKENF
T1 sequence (P13498 2-195 partner limits assumed): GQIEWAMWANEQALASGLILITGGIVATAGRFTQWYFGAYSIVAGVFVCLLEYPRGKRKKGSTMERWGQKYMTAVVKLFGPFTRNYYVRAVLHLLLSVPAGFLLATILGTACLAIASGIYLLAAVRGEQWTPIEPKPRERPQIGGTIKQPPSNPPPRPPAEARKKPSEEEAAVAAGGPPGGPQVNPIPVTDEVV
Method: In the cell-based assay, superoxide production by NOX2 was measured in differentiated HL60 cells, a human myelomonocytic leukemia cell line, using either Oxyburst (Assay1) or L012 (Assay2). Differentiation of HL-60 cells to granulocytes increases NOX2 expression. The phorbol 12-myristate 13-acetate (PMA) was used to stimulate the production of superoxide in HL60 cells by activating protein kinase C, which then activated the NADPH oxidase (NOX) enzymes. Inhibition of NOX2 enzyme was detected by the reversal of fluorescence signal (Assay 1) or luminescence signal (Assay2). The control inhibitor used was diphenyleneiodonium chloride (DPI), a […] inhibitor capable of non-selectively inhibiting superoxide produced by NOX enzymes.
Assay 1: in this high-throughput screening assay, oxyburst green bovine serum albumin (BSA) was used to detect superoxide production in HL60 cells. Oxidation of Oxyburst green BSA by hydrogen peroxide as a result of the activation of NOX2 by PMA. Oxyburst green BSA fluorescence was measured at excitation 485 nm and emission 530 nm.
Assay 2: in this assay, a chemiluminescence probe, L-012 was used to detect superoxide production in HL60 cells. L-012 reacted with various types of reactive oxygen species generated by PMA-activated HL60 cells. Luminescence was measured using Tecan Infinite 500.
The HL60 cells were differentiated into neutrophil-like cells by adding 1.3% DMSO in the media for 3-7 days (Hua, J et al. (2000) Journal of Leukocyte Biology. 68:216-224). Iscove's Modified Dulbecco's Media (IMDM) with L-Glutamine and 25 mM HEPES buffer, Fetal Bovine Serum (FBS), Penicillin/Streptomycin, Oxyburst Green BSA, PBS, and HBSS buffer with Calcium Chloride and Magnesium Chloride were purchased from Invitrogen (Catalog #s: 12440-061, 10500-064, 15140-163, O-13291, 14190-250, and 14025-134 respectively). Phorbol 12-myristate 13-acetate (PMA), glucose, and CHAPS were purchased from Sigma (Catalog #s: 79346, D-9434, and C5070 respectively). Diphenyleneiodonium chloride (DPI) was purchased from Toronto Research Chemicals (Catalog #: D491500). L-012 was purchased from Wako Chemical (Catalog #: 120-04891). Dimethyl sulfoxide (DMSO) was purchased EMD Chemicals (VWR Catalog #: MX1456-1). Multidrop combi was purchased from Thermo Electron Corporation (Waltham, Mass., USA). Hummingbird nanoliter liquid dispenser was purchased from Genomics Solution (Ann Arbor, Mich., USA). 384 well low-volume plates and polypropylene 384 well clear plates were purchased from Greiner (Catalog #: 784076 and 781280 respectively). 96 well plate and 384 well plate black assay plates were purchased from Greiner (Catalog #: 655094 and 781098). 96 well plate for compound serial dilution was purchased from Corning (Catalog #: 9017). Acquest or Analyst fluorescence plate reader was purchased from LJL Biosystems/Molecular Devices (California, USA). Tecan Infinite 500 was purchased from Tecan (Switzerland).
HL60 cells were thawed and resuspended in Cells media. The cells were centrifuged at 1200 rpm for 5 minutes. Media was aspirated and the cells were resuspended in Cells buffer. The cells were counted and resuspended to 0.5×10^6 cells/mL.
Full inhibition controls were dispensed using 100 nL/well of 1 mM DPI in DMSO to column 18 of a 384 well plate. Compounds were dispensed using 100 nL/well. Full activity controls were dispensed using 100 nL/well of 4 uM PMA in DMSO. Oxyburst Green BSA was added to cell solution at 10 ug/mL. Using the Multidrop, 10 uL cell solution was added to the entire assay plate. The assay plate was incubated at room temperature for 100 minutes. Fluorescence reading was taken after 100 minutes at excitation 485 and emission 530 using 505 Dichroic on the Acquest or Analyst.
Serial dilution (1:3.16 fold serial dilution) of the compounds was performed in 100% DMSO in 96 well plate—Row B-H Column 1-10. Row A, Column 1-10 contained DPI serial dilution. Starting concentration was 10^−2 M (10 mM). […]

Compound | IC50 [µM]
COc1cc(-c2cn(C)c3nccc(NS(=O)(=O)c4ccccc4)c23)cc(N2CCN(C(C)C)CC2)c1 [Example 29, N-(3-(3-(4-isopropylpiperazin-1-yl)-5-methoxyphenyl)-1-methyl-1H-pyrrolo[2,3-b]pyridin-4-yl)benzenesulfonamide] | > 100
Cn1c(-c2cc[nH]n2)c(-c2cccc(N3CCCC3)c2)c2c(NS(=O)(=O)c3ccccc3)ccnc21 [Example 173, N-(1-methyl-2-(1H-pyrazol-3-yl)-3-(3-(pyrrolidin-1-yl)phenyl)-1H-pyrrolo[2,3-b]pyridin-4-yl)benzenesulfonamide] | > 100
COc1cc(-c2cn(C)c3nccc(NS(=O)(=O)c4ccccc4)c23)cc(N2CCN(C)CC2)c1 [Example 28, N-(3-(3-methoxy-5-(4-methylpiperazin-1-yl)phenyl)-1-methyl-1H-pyrrolo[2,3-b]pyridin-4-yl)benzenesulfonamide] | > 100
CN1Cc2ccc(-c3cn(C)c4nccc(NS(=O)(=O)c5ccccc5)c34)cc2C1 [Example 251, N-[1-methyl-3-(2-methyl-2,3-dihydro-1H-isoindol-5-yl)-1H-pyrrolo[2,3-b]pyridin-4-yl]benzenesulfonamide] | > 100

Second part, the compound after the results:

IC50 [µM] | Compound
> 100 | CC(C)N1CCN(c2cncc(-c3cn(C)c4nccc(NS(=O)(=O)c5cccc(Cl)c5)c34)c2)CC1 [Example 25, 3-chloro-N-(3-(5-(4-isopropylpiperazin-1-yl)pyridin-3-yl)-1-methyl-1H-pyrrolo[2,3-b]pyridin-4-yl)benzenesulfonamide]
> 100 | CN1C(=O)COc2ccc(-c3cn(C)c4nccc(NS(=O)(=O)c5ccccc5)c34)cc21 [Example 39, N-(1-methyl-3-(4-methyl-3-oxo-3,4-dihydro-2H-benzo[b][1,4]oxazin-6-yl)-1H-pyrrolo[2,3-b]pyridin-4-yl)benzenesulfonamide]
